Assay results reported in patent US10888530B2, “Implantable drug delivery compositions and methods of use thereof” (AcuityBio Corporation, priority 2015, dated 2021).

Experiments:
[1] = Paclitaxel analysis in rabbit lung implant study (blood, pleural fluid, lung tissue); type: in vivo
Procedure: An incision at the 8th intercostal space was made into the thorax of anesthetized rabbits. The Caudal lobe was partially released from the underlying ligament. Implants were affixed as a sandwich at the apical end of a resected caudal lobe. In all cases, 2 implants top & bottom were preloaded onto a 30 mm GIA stapler. Stapling and resection were performed using a 30 mm GIA stapler. Animals were sutured, air was removed from the thorax and the wound covered. […] A general schematic of the reset procedure is provided by FIG. 13A-D. For example, the stapler jaws (with the implant) are positioned to grasp the tissue (FIG. 13A). Staples are then deployed through the implant securing it to the tissue at the same time as the internal blade bisects the stapled tissue (FIG. 13B). The now bisected implant is released from the stapler. The resected tissue is removed.

[2] = Therapeutic concentration range for paclitaxel

CC(=O)O[C@H]1C(=O)[C@@]2(C)[C@H]([C@H](OC(=O)c3ccccc3)[C@]3(O)C[C@H](OC(=O)[C@H](O)[C@@H](NC(=O)c4ccccc4)c4ccccc4)C(C)=C1C3(C)C)[C@]1(OC(C)=O)CO[C@@H]1C[C@@H]2O [paclitaxel]
concentration at 14 days ([1]; blood and tissues outside the thorax, rabbit, day 14): < 0.5 ng/mL | Paclitaxel level in pleural fluid ([1]; paclitaxel coated buttress implants): 10 to 100 nM | Paclitaxel concentration in blood (below quantifiable limits) ([1]; rabbit, 2 days, 7 days and terminally at 14 days): < 500 pg/mL | IC90 [2]: ~50 nM | IC90 (therapeutic concentration range) [2]: about 42.5 ng/ml
